Data reported in patent US6958318B2, “Recombinant bacterial cells for delivery of PNP to tumor cells” (The UAB Research Foundation, priority 1993, dated 2005).
Several values for one entry are separate records, joined by “and”; a condition that tells them apart may be missing. Equal entries are not always repeated. Entries after “also recorded” stand apart in the source; their conditions may differ.

What was measured:
[1] = target: T1, human PNP (Homo sapiens, UniProt P00491); test: Cleavage of purine analog nucleosides by human PNP (HPLC); assay type: biochemical
T1 sequence (P00491 1-289): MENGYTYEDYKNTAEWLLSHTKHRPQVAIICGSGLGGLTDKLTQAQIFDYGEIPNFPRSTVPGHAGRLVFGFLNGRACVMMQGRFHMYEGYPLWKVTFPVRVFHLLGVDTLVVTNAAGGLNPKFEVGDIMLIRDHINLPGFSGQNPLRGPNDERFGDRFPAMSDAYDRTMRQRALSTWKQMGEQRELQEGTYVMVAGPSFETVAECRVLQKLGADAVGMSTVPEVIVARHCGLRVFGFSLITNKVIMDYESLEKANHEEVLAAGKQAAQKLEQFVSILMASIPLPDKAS

[2] = target: T2, E. coli PNP (Escherichia coli, UniProt P0ABP8)
[3] = target: T2, E. coli PNP; assay type: biochemical
[4] = system: tumor cells transduced with the E. coli PNP; test: Killing of PNP-transduced tumor cells in vitro by other prodrugs; assay type: cell-based
Source text: In addition to MeP-dR, two other prodrugs suitable for E. coli PNP activation in tumor cells can be applied to the methodology of the present invention. These prodrugs are F-araA and 2-F-2′deoxyadenosine. […] As desired, this dose had no effect on control untransduced, tumor cells.

[5] = system: wild-type 16/C tumors; test: Wild-type 16/C tumors in B6C3F1 mice; assay type: in vivo
Experimental: (§1) Transduced 16/C cells were implanted in mice by subcutaneous injection of approximately 10^6 cells harvested from the cultures of stably transduced 16/C cells described above. The mice were examined visibly for tumor growth and those with developing tumors were maintained. To prepare mice for use in the in vivo experiments, the tumors were removed from mice with significant tumor growth and cut into 30-60 mg pieces. One 30-60 mg piece of the tumor was subcutaneously implanted into the subaxillary region of each female B6C3F1 mouse. The tumors were allowed to develop and mice with tumors of 100 mm^3 were used.
Six mice (B6C3F1) per group with established wild type 16/C tumors were treated with an aqueous control solution, MeP-dR (100 mg/kg IP qd×3d) or 2-fluoro-arabinofuranosyladenine monophosphate (F-araAMP) (100 mg/kg IP, […]). The wild type tumors grew rapidly in the presence or absence of either of the prodrugs. […] (Table III, Wild-type 16/C treatment).

[6] = system: D54 glioma tumors; test: D54 tumors of mixed wild-type and transduced cells (80 to 20); conditions: in vivo
[7] = system: PNP transduced tumors; assay type: in vivo; conditions: mouse, in vivo
[8] = system: 16/C-PNP cells; test: 16/C-PNP tumors in athymic nude mice; conditions: 100 mg/kg IP 3 id × 3 d; monophosphate
[9] = system: wild type murine breast carcinoma cells (16/C cell line); test: Wild-type 16/C tumors in nude mice; assay type: in vivo; conditions: FIG. 6
Experimental: For studies conducted with nu/nu mice, cells obtained from stable cultures of transduced cell lines were injected subcutaneously into the right or left flank of the mice. Mice with visible tumor growth were used for further studies. For the administration of purine prodrug, mice were administered MeP-dR or F-araAMP by IP injection.
Four to five nude (nu/nu) mice per group were inoculated with wild type murine breast carcinoma cells (16/C cell line), or PNP transduced 16/C cells. Mice with established tumors (approximately 100 mm^3) were treated with MeP-dR (100 mg/kg/d IP×3 d) or F-araAMP (100 mg/kg/IP 3 id×3 d).

[10] = system: 16/C-PNP tumors; test: E. coli PNP-transduced 16/C tumors in B6C3F1 mice; assay type: in vivo
Experimental: as §1
Six mice per group with established PNP-transduced 16/C tumors were treated with aqueous control solution, MeP-dR or F-ara AMP, as above. […] (Table III, 16/C-PNP treatment.)

[11] = system: D54-PNP tumors; test: E. coli PNP-transduced D54 glioma tumors in nude mice; assay type: in vivo; conditions: previous studies
Experimental: Female athymic nude mice (nu/nu) were implanted sc with 2×10^7 cells of either D54 parental tumor cells (D54-wt) or D54 tumor cells that had been transduced with the E. coli PNP (D54-PNP). After the tumors had grown to approximately 150 mg, they were treated ip with either vehicle or 67 mg/kg of MeP-dR (IP) once a day for 3 days (days 6, 7 and 8 after implantation). The tumor sizes were measured twice a week after treatment.
A confirmation experiment was set up exactly as described above, except that animals were treated with two doses of MeP-dR (45 and 67 mg/kg) (FIGS. 10 and 11). The results of this experiment were similar (Table V). There were 8 of 10 complete regressions in mice bearing the D54-PNP tumors that were treated with 67 mg/kg of MeP-dR. In 4 mice the tumors subsequently returned and grew. There were still 4 of 10 tumor-free survivors 60 days after the treatment had stopped. […] There were 2 of 10 complete regressions and 3 partial responses. […] The delay in the time required to double twice due to treatment with MeP-dR was 5 to 6 days in the non-transduced tumors and greater than 24 days in transduced tumors. In this experiment, the growth rate of the D54-PNP tumors was considerably slower than it was in the first experiment. There was no change in the growth rate of the D54-wt tumors. The reason for the slow growth rate of the D54-PNP tumors in this experiment is not known. […] (In other words, if a tumor was too small to measure, it was not included in the average size). This means that the overall tumor regressions in the D54 PNP group are actually much more pronounced than they appear in FIGS. 8-11.

[12] = system: CF PAC (human pancreatic adenocarcinoma) cells; test: Intratumoral MeP in established human pancreatic tumors in SCID mice; assay type: in vivo; conditions: once a day for three days
Experimental: CF PAC (human pancreatic adenocarcinoma) cells were grown in T75 flasks, trypsinized, washed with PBS and then inoculated subcutaneously into female SCID mice at approximately 2×10^7 cells per animal. The tumors were allowed to grow for several days until they reached the size of approximately […]. At this point, groups of five animals were treated either with vehicle (PBS), PBS containing methyl purine (1.67 mg/kg) or PBS with a higher dose of methyl purine (5.0 mg/kg). Drug or vehicle was injected intratumorally with 3-4 needle passes. Animals were treated with either vehicle or drug one time each day for three days. The growth of the tumors was followed. Measurements in two dimension were used to approximate the overall tumor size. […] For example, purine analogs which are known to have strong cytotoxic activity such as 2-fluoroadenine, 2-fluoroadenosine, 9-[ribosyl]-6-methylpurine, 2-amino-6-chloro-1-deazapurine, 3-deazaguanine, 6-thioguanine, and 6-mercaptopurine can be directly administered to a tumor to cause regression and/or inhibit tumor growth.

[13] = system: Mel-1 cells; test: Wild type melanoma cell viability; assay type: cell-based, human; conditions: concentrations as low as 0.5 μg/ml, five days
[14] = system: CEM cells; test: Toxicity to nondividing CEM cells (1% serum); assay type: cell-based; conditions: 10 μg/ml, non-proliferating cells in 1% serum
Experimental: Results from experiments indicate that MeP is able to kill non-proliferating cells. This distinguishes MeP from most other antitumor agents. In the first experiment, CEM cells were cultured in 1% serum instead of the normal 10% serum for 48 hours. Under these conditions, the cells stop growing and the cell numbers stabilize at 1.5 to 2 times the original cell numbers. Cell growth continues when cells are returned to culture medium containing 10% serum.

[15] = Stability under tissue culture conditions (HPLC of supernatants); conditions: HPLC analysis of supernatants
[16] = system: T-84 colon carcinoma cells; test: Toxicity of MeP and MeP-dR in untransfected T-84 cells; assay type: cell-based, human
Experimental: T-84 colon carcinoma cells were grown in Dulbecco's modified Eagle medium containing F12 nutrient medium (DMEM/F12) (GIBCO/BRL, Gaithersburg, Md.) in 6 well trays to a density of approximately […] (−20% confluency).
Untransfected T-84 colon carcinoma cells were treated with increasing concentrations of either MeP-dR or MeP. After 5 days the cells were removed from each well and the number of dye excluding cells were determined with the aid of a hemacytometer. Cells were studied both at passage 48 (p. 48) and passage 61 (p. 61). MeP was obtained from Sigma Chemical Company (St. Louis, Mo.). MeP-dR was synthesized by standard methods as described (J. A. Montgomery and K. Howson, J. Med. Chem., 11:48-52 (1968)). The nucleoside and base were dissolved in serum free DMEM/F12 at a concentration of 1 mg/ml and added directly to 1 ml DMEM/F12 with 10% fetal bovine serum at the concentrations described below in order to cover 1-2×10^5 cells/well.
Initial cytopathic effects due to MeP were observed within 24 hours (for example, rounding of cells, with some cells detaching from plate). Viable cells were counted 5 days following addition of drug. […] Trypan blue exclusion was used to confirm viability in cells retaining recognizable structure at all concentrations studied. […] If the toxicity of MeP-dR is due to very low levels of liberation of MeP by human PNP, then combination with selective inhibitors of human PNP could prevent this toxicity.

[17] = system: OC[C@H]1O[C@@H](n2cnc3c(O)ncnc32)[C@H](O)[C@@H]1O; test: purified protein, by the assay type; conditions: other: enzyme source: Bacteria
[18] = system: Nc1nc(F)nc2c1ncn2[C@H]1C[C@H](O)[C@@H](CO)O1; test: purified protein, by the assay type
[19] = IP for three days, MeP-dR 100, F-araAMP 500 mg/kg/day

T2 sequence (P0ABP8 2-239): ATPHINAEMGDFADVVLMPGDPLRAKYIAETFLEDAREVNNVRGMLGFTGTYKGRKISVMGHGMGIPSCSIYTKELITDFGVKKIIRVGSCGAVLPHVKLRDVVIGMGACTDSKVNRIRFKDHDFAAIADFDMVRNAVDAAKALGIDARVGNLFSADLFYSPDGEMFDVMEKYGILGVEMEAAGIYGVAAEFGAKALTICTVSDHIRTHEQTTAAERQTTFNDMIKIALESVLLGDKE

Compound: Nc1nc(F)nc2c1ncn2[C@@H]1O[C@H](CO)[C@@H](O)[C@@H]1O [F-araA, 2-F-arabinofuranosyl-adenine]
- Percent of substrate cleaved by Human PNP, 100 μM [1]: 0(88) Percent and 0(86) Percent
- Percent of substrate cleaved by Human PNP, 1 mM [1]: 0(50) Percent and 0(47) Percent
- Substrate quality for mammalian (human) PNP [1]: poor substrates; also recorded: not cleaved
- Km [2]: 510 µM
- Percent of substrate cleaved by E. coli PNP, 100 μM [3]: 3(86) Percent and 5(86) Percent
- Substrate quality for bacterial (E. coli) PNP [3]: moderate substrates; also recorded: poorly cleaved
- Killing of PNP-transduced tumor cells in vitro [4]: high level killing
- Killing of transduced versus untransduced tumor cells ([4]; 500 ng/ml): specifically killed transduced, but not untransduced, tumor cells

Compound: Nc1nc(F)nc2c1ncn2[C@@H]1O[C@H](COP(=O)(O)O)[C@@H](O)[C@@H]1O [F-araAMP, 2-fluoro-arabinofuranosyladenine monophosphate, reference compound]
- Complete Regressions/Total [5, 19]: 0/6
- Day delay (Treated-control) [5, 19]: 2.7 days
- Nonspecific Deaths/Total [5, 19]: 0/6
- Delay in tumor growth, in words ([5]; wild type 16/C): no statistically significant delay in tumor growth
- Activity against tumors of wild-type and transduced cells at 80 to 20 [6]: less active
- Anti-tumor effect on PNP transduced tumors in mice [7]: in vivo regression
- Effect of F-araAMP on growth of 16/C tumors expressing E. coli PNP [8]: growth delay for at least ten days; also recorded: significantly inhibited the growth
- Effect on growth of wild-type 16/C tumors [9]: only a small effect on tumor growth
- Complete Regressions/Total [10, 19]: 0/6
- Day delay (Treated-control) [10, 19]: 3.3 days
- Nonspecific Deaths/Total [10, 19]: 0/6
- Delay in time for three tumor doublings, in words ([10]; p<0.01): statistically significant delay
- Days for tumor to double 3 times mean/SD ([10]; tumors that completely regressed not included): 12.1 ± 1.6 days
- Activity against D54 glioma tumors expressing the E. coli PNP gene [11]: good activity

Compound: Cc1ncnc2nc[nH]c12 [MeP, 6-methylpurine, reference compound]
- Tumor growth ([12]; 1.67 mg/kg intratumorally): intermediate effect upon tumor growth
- Tumor growth ([12]; 5.0 mg/kg intratumorally): completely arrested in terms of their growth
- Lethality to Mel-1 cells [13]: ~100%
- Cell numbers relative to original number [14]: approximately 25%
- Stability under tissue culture conditions [15]: stable
- Time to initial cytopathic effects [16]: ≤ 24 h
- Effect on cells ([16]; MeP 3.75 μM-75 μM, by day 2): cell lysis and complete loss of cellular architecture

Compound: E. coli PNP (Escherichia coli K-12)
- Km [17]: 46 µM
- Km ([18]; other: enzyme source: Bacteria): 44 µM
- Km ([18]; other: enzyme source: D54 cells (transduced)): 38 µM
